Measured values from patent US12202821B2, “Herbicidal compounds” (SYNGENTA CROP PROTECTION AG, priority 2019, dated 2025).

Experiments:
Type in all cases: in vivo
IPOHE [1] = assay: Post-emergence biological efficacy; conditions: Ipomoea hederacea, 312 h, evaluated after 13 days, read-out: damage to plant (100=total damage to plant; 0=no damage to plant), IPOHE
Procedure: (§1) Post-Emergence Biological Efficacy
(§2) Seeds of weeds and/or crops were sown in standard soil in pots. After cultivation for 8 days under controlled conditions in a glasshouse (at 24/16° C., day/night; 14 hours light; 65% humidity), the plants were sprayed with an aqueous spray solution derived from the formulation of the technical active ingredient in acetone/water (50:50) solution containing 0.5% Tween 20 (polyoxyethylene sorbitan monolaurate, CAS RN 9005-64-5) to give the desired final dose of test compound.
(§3) The test plants were then grown on under controlled conditions in a glasshouse (at 24/16° C., day/night; 14 hours light; 65% humidity) and watered twice daily. After 13 days the test was evaluated (100=total damage to plant; 0=no damage to plant).

LOLPE [2] = assay: Post-emergence biological efficacy; conditions: 312 h, evaluated after 13 days, read-out: damage to plant (100=total damage to plant; 0=no damage to plant), LOLPE
Procedure: as §1, §2, §3

ECHCG [3] = assay: Post-emergence biological efficacy; conditions: Echinochloa crus-galli, 312 h, evaluated after 13 days, read-out: damage to plant (100=total damage to plant; 0=no damage to plant), ECHCG
Procedure: as §1, §2, §3

EPHHL [4] = assay: Post-emergence biological efficacy; conditions: 312 h, evaluated after 13 days, read-out: damage to plant (100=total damage to plant; 0=no damage to plant), EPHHL
Procedure: as §1, §2, §3

AMAPA [5] = assay: Post-emergence biological efficacy; conditions: 312 h, evaluated after 13 days, read-out: damage to plant (100=total damage to plant; 0=no damage to plant), AMAPA
Procedure: as §1, §2, §3

CHEAL = assay: Post-emergence biological efficacy; conditions: Chenopodium album, 312 h, evaluated after 13 days, read-out: damage to plant (100=total damage to plant; 0=no damage to plant), CHEAL
Procedure: as §1, §2, §3

DIGSA = assay: Post-emergence biological efficacy; conditions: Digitaria sanguinalis, 312 h, evaluated after 13 days, read-out: damage to plant (100=total damage to plant; 0=no damage to plant), DIGSA
Procedure: as §1, §2, §3

SETFA [6] = assay: Post-emergence biological efficacy; conditions: Setaria faberi, 312 h, evaluated after 13 days, read-out: damage to plant (100=total damage to plant; 0=no damage to plant), SETFA
Procedure: as §1, §2, §3

ELEIN = assay: Post-emergence biological efficacy; conditions: 312 h, evaluated after 13 days, read-out: damage to plant (100=total damage to plant; 0=no damage to plant), ELEIN
Procedure: as §1, §2, §3

IPOHE [7] = assay: Pre-emergence biological efficacy; conditions: Ipomoea hederacea, 312 h, evaluated after 13 days, read-out: damage to plant (100=total damage to plant; 0=no damage to plant), IPOHE
Procedure: (§4) Pre-Emergence Biological Efficacy
as §2, with “one day” for “8 days”
(§5) The test plants were then grown under controlled conditions in the glasshouse (at 24/16° C., day/night; 14 hours light; 65% humidity) and watered twice daily. After 13 days the test was evaluated (100=total damage to plant; 0=no damage to plant).

LOLPE [8] = assay: Pre-emergence biological efficacy; conditions: 312 h, evaluated after 13 days, read-out: damage to plant (100=total damage to plant; 0=no damage to plant), LOLPE
Procedure: as §4
as §2, with “one day” for “8 days”
as §5

ECHCG [9] = assay: Pre-emergence biological efficacy; conditions: Echinochloa crus-galli, 312 h, evaluated after 13 days, read-out: damage to plant (100=total damage to plant; 0=no damage to plant), ECHCG
Procedure: as §4
as §2, with “one day” for “8 days”
as §5

EPHHL [10] = assay: Pre-emergence biological efficacy; conditions: 312 h, evaluated after 13 days, read-out: damage to plant (100=total damage to plant; 0=no damage to plant), EPHHL
Procedure: as §4
as §2, with “one day” for “8 days”
as §5

AMAPA [11] = assay: Pre-emergence biological efficacy; conditions: 312 h, evaluated after 13 days, read-out: damage to plant (100=total damage to plant; 0=no damage to plant), AMAPA
Procedure: as §4
as §2, with “one day” for “8 days”
as §5

SETFA [12] = assay: Pre-emergence biological efficacy; conditions: Setaria faberi, 312 h, evaluated after 13 days, read-out: damage to plant (100=total damage to plant; 0=no damage to plant), SETFA
Procedure: as §4
as §2, with “one day” for “8 days”
as §5

Row | SMILES | pest or weed control at 250 g/ha (IPOHE [1]) | pest or weed control at 250 g/ha (LOLPE [2]) | pest or weed control at 250 g/ha (ECHCG [3]) | pest or weed control at 250 g/ha (EPHHL [4]) | pest or weed control at 250 g/ha (AMAPA [5]) | pest or weed control at 250 g/ha (CHEAL) | pest or weed control at 250 g/ha (DIGSA) | pest or weed control at 250 g/ha (SETFA [6]) | pest or weed control at 250 g/ha (ELEIN) | pest or weed control at 250 g/ha (IPOHE [7]) | pest or weed control at 250 g/ha (LOLPE [8]) | pest or weed control at 250 g/ha (ECHCG [9]) | pest or weed control at 250 g/ha (EPHHL [10]) | pest or weed control at 250 g/ha (AMAPA [11]) | pest or weed control at 250 g/ha (SETFA [12])
1 | Cn1c(=S)n(C)c(=O)n(-c2cc(C3=NOC(C)(C(=O)NS(C)(=O)=O)C3)c(Cl)cc2F)c1=O (stereo not drawn) [Compound 284, 3-[2-chloro-5-(3,5-dimethyl-2,6-dioxo-4-thioxo-1,3,5-triazinan-1-yl)-4-fluoro-phenyl]-5-methyl-N-methylsulfonyl-4H-isoxazole-5-carboxamide] | 100% | 80% | 100% | 90% | 100% | 100% | 100% | 100% | 100% | 100% | 40% | 30% | 100% | 100% | 70%
2 | CC(=O)C1(C)CC(c2cc(-n3c(=O)n(C)c(=S)n(C)c3=O)c(F)cc2Cl)=NO1 (stereo not drawn) [Compound 290, 3-[5-(5-Acetyl-5-methyl-4H-isoxazol-3-yl)-4-chloro-2-fluoro-phenyl]-1,5-dimethyl-6-thioxo-1,3,5-triazinane-2,4-dione] | 100% | 90% | 90% | 100% | 100% | 100% | 100% | 90% | 100% | 100% | 90% | 90% | 100% | 100% | 100%
3 | CO/N=C(\C)C1(C)CC(c2cc(-n3c(=O)n(C)c(=S)n(C)c3=O)c(F)cc2Cl)=NO1 (stereo not drawn) [Compound 293] | 100% | 60% | 30% | 100% | 100% | 100% | 100% | 90% | 90% | 50% | 90% | 90% | 100% | 100% | 100%
4 | CC(=NO)C1(C)CC(c2cc(-n3c(=O)n(C)c(=S)n(C)c3=O)c(F)cc2Cl)NO1 (stereo not drawn) [Compound 296, 3-[4-Chloro-2-fluoro-5-[5-[N-hydroxy-C-methyl-carbonimidoyl]-5-methyl-isoxazolidin-3-yl]phenyl]-1,5-dimethyl-6-thioxo-1,3,5-triazinane-2,4-dione] | 90% | 70% | 30% | 80% | 100% | 100% | 70% | 80% | 90% | 90% | 80% | 80% | 90% | 100% | 100%
5 | COC(=O)CO/N=C(\C)C1(C)CC(c2cc(-n3c(=O)n(C)c(=S)n(C)c3=O)c(F)cc2Cl)=NO1 (stereo not drawn) [Compound 299, methyl 2-[1-[3-[2-chloro-5-(3,5-dimethyl-2,6-dioxo-4-thioxo-1,3,5-triazinan-1-yl)-4-fluoro-phenyl]-5-methyl-4H-isoxazol-5-yl]ethylideneamino]oxyacetate] | 90% | 90% | 100% | 90% | 100% | 100% | 80% | 100% | 90% | 80% | 60% | 0% | 90% | 100% | 60%
